Measurements taken from article PMC5450539, “Anti-Inflammatory Activity and Structure-Activity Relationships of Brominated Indoles from a Marine Mollusc” (Marine Drugs, 2017).
“And” between values parts separate entries of the source, which are not always exact repeats. Equal values may be shown once. Read-outs that look alike come from different tables or passages of the source.

How the values were obtained:
NFκB translocation = experiment: Assessment of NFκB translocation in LPS-stimulated RAW264.7; assay type: cell-based; details: Mus musculus, RAW264.7, 40 µg/mL, LPS-stimulated RAW264.7, relative to DMSO + LPS
Experimental: This assay was performed according to the published protocol in Olivera et al.. RAW264.7 mouse macrophages were seeded at 400,000 cells/well in 800 μL in 4-well chambered slides and incubated overnight. The cells were then incubated with the test samples (40 μg/mL HBG extract, 6-bromoisatin, or 6-bromoindole) for 1 h prior to stimulation with LPS (700 ng/mL) for 30 min. After stimulation, the cells were washed with PBS and fixed with 3.7% paraformaldehyde for 15 min. […] The cells were washed with PBS and incubated with rabbit anti-p65 NFκB antibody (1:500) and goat anti-mouse IκB (1:500) overnight at 4 °C. The following day, the cells were washed again three times with PBS and incubated for 1 h with goat-anti-rabbit IgG conjugated with Alexa Fluor 594 (1:1000) and donkey anti-mouse IgG conjugated with Alexa fluor 488 (1:1000) at room temperature. Finally, the cells were washed with PBS then mounted with Prolong mounting media containing DAPI before visualising using the Olympus Flouview FVi10 confocal microscope (Olympus, Tokyo, Japan). Using ImageJ (v1.50i, National Institutes of Health, Bethesda, MD, USA), an outline was drawn around each nucleus by adjusting the colour threshold of DAPI. Mean fluorescence inside the nucleus was measured, along with several adjacent background readings. The total corrected cellular fluorescence (TCCF) was calculated by applying the equation TCCF = integrated density − (area of selected cell × mean fluorescence of background readings). This TCCF was then used to calculate the %inhibition of the NFκB translocation against the positive control where the cells were treated with LPS in the presence of the Vehicle (0.35% DMSO v/v) in Microsoft Office Excel 2013 (Redmond, WA, USA).

[1] = system: nitric oxide (NO) production; experiment: NO inhibition assay (Greiss) in LPS-stimulated RAW264.7 macrophages; assay type: cell-based, mouse; details: for IC50: Mus musculus
Experimental: RAW264.7 macrophages were incubated 1 h with extracts/compounds prior to the addition of LPS. […] Then, 20 h after the addition of LPS, the supernatant was collected. […] The plates were incubated for 15–20 min in the dark, then read at 550 nm wavelength on an Anthos Zenyth 200rt (Anthos Labtec Instruments). Sodium nitrite was used to prepare a standard curve to quantify the nitrite from the absorbance readings in this assay. All data were processed in Microsoft Office Excel 2013 (MS) first to obtain descriptive statistics. One-way Analysis of Variance (ANOVA) followed by Dunnett’s multiple comparisons test was performed using GraphPad Prism version 6.00 for Windows (GraphPad Software, La Jolla, CA, USA, www.graphpad.com), with p < 0.05 considered significant.

TNFα = system: TNFα; parameters: method as in Matheus et al. [37]; details: minimum effective dose not established; ref Matheus et al. [37]; cited from earlier work
[2] = system: 3T3 ccl-92 mouse fibroblast; experiment: Crystal violet cytotoxicity assay, 3T3 ccl-92; assay type: cell-based; details: 24 h incubation; max test concentration 50 µg/mL; > = <50% reduction in viability at max
Experimental: All extract/compounds were dissolved in DMSO and tested at 5 different concentrations of 50, 10, 2, 0.4, and 0.08 μg/mL for all anti-inflammatory assays unless otherwise noted. The final concentration of DMSO was 0.35% v/v for extracts and compounds. All samples were tested in triplicate at each concentration and each assay was independently repeated at least 3 times. The concentrations used for the cytotoxicity assays were 50, 25, 12.5, 6.25. and 3.125 μg/mL.
To check for cytotoxicity of the extracts and compounds against RAW264.7 mouse macrophage and 3T3 ccl-92 mouse fibroblast cell lines, the crystal violet cytotoxicity test was used according to the published protocol. In brief, RAW264.7 cells were seeded with a density of 2 × 10^4 cells/well in a 96-well plate and then incubated for 18–24 h. The following day the compounds/extracts were added and then incubated for 24 h before the media was aspirated and the cells washed twice in a gentle stream of water. After removing the water, 50 µL of 0.5% crystal violet staining solution were added and the cells were incubated for 20 min at room temperature. The plate was then washed 4 times with water and air dried for 2 h. Finally, 200 μL of methanol was added to each well and incubated for 20 min at room temperature on a rocker. This was followed by measuring the optical density at 570 nm with a plate reader Anthos Zenyth 200rt (Anthos Labtec Instruments, Heerhugowaard, The Netherlands). Chlorambucil was used as a positive control.

NO production = system: NO production; parameters: method as in Matheus et al. [37]; details: LPS and interferon-γ induced, RAW264.7; ref Matheus et al. [37]; cited from earlier work
TNFα production = experiment: TNF-alpha inhibition assay (ELISA) in LPS-stimulated RAW264.7 macrophages; assay type: cell-based, mouse; details: for IC50: Mus musculus
Experimental: The amount of TNFα was quantified in cell culture media using murine TNFα ELISA kits (BD bioscience). In brief, the RAW264.7 mouse macrophages (6 × 10^5 cells/mL) were stimulated with LPS (100 ng/mL) 1 h after treatment with several concentrations of extracts (0.08–50 μg/mL). After 18 h, the supernatant was collected and TNFα production was measured by reading the absorbance at 450 nm wavelength on an Anthos Zenyth 200rt microplate reader (Anthos Labtech Instruments). Dexamethasone at a concentration of 2.5 μM was used as a positive control, with a negative control of 0.35% DMSO.
All data were processed in Microsoft Office Excel 2013 (MS) first to obtain descriptive statistics. One-way Analysis of Variance (ANOVA) followed by Dunnett’s multiple comparisons test was performed using GraphPad Prism version 6.00 for Windows (GraphPad Software, La Jolla, CA, USA, www.graphpad.com), with p < 0.05 considered significant. The inhibitory concentration responsible for a 50% reduction in cell viability or production of inflammatory markers (IC50) was calculated using the regression analysis, Probit in SPSS v21.

IC50 ([1]; RAW264.7, LPS-stimulated RAW264.7, max test concentration 50 µg/mL, read-out: NO IC50): ~340 µM | IC50 ([1]; RAW264.7, predicted, above maximum test concentration 50 μg/mL, read-out: predicted NO IC50): 63.3 µg/mL and 430 µM | IC50 (TNFα production; RAW264.7, LPS-stimulated RAW264.7, max test concentration 50 µg/mL, read-out: TNFα IC50): > 340 µM | IC50 (TNFα production; RAW264.7, LPS-stimulated RAW264.7, read-out: TNFα IC50): > 50 µg/mL | IC50 (TNFα production; RAW264.7, predicted, above the maximum test concentration, read-out: predicted TNFα IC50): 717 µM
Compound: O=C1Nc2ccccc2C1=O [isatin]
inhibition at 40 µg/mL (NFκB translocation): 45.7% | reduction of NO production ([1]; 50 µg/mL (maximum test concentration), relative to DMSO control): 34% | concentration at which TNFα was inhibited (TNFα): 100 µM | Cytotoxicity 3T3 ccl-92 (test concentration which causes toxicity) [2]: NA (not active at maximum test concentration 50 µg/mL) | concentrations significantly inhibiting NO production (NO production): 10 to 100 µM | lowest concentration with significant inhibition of TNFα (TNFα production): 0.5 µM
